What was measured:
[1] = system: thymus weight in rats; assay: Thymus inhibition testing (subcutaneous administration); type: in vivo, rat; conditions: for Body weight gain / Thymus / Thymus Inhibition: Table VII, three days
Summary of the method: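 Male Sprague-Dawley rats were dosed systemically. On the fifth day, 48 hours after the last treatment, animals were sacrificed and thymus weights recorded.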

[2] = system: ear swelling induced by croton oil; assay: Ear edema test; type: in vivo, rat; conditions: 1 mg/kg topical
Method: The test animals were Sprague/Dawley rats weighing approximately 150 grams each. In treatment groups, selected amounts of the test compound were dissolved in acetone containing 5% croton oil and 50 microliters of the solution were applied to the inner surface of the right ear of the rats. A control group was identically treated with vehicle only, i.e. 5% croton oil in acetone. Six hours after croton oil challenge, a constant region of each ear was removed by dissection under anesthesia. Then, 48 hours after steroid treatment, the animals were sacrificed and the thymi and adrenals were removed and weighed. The test results showing the inhibitory effect of topically applied steroids on the ear swelling induced by croton oil are summarized in Table II below.

[3] = system: blank cotton pellet granuloma; assay: Blank cotton pellet granuloma assay (intravenous administration); type: in vivo, rat; conditions: 3 days
Method: A further test was undertaken to determine the thymolytic activity of a representative species of the invention as compared to betamethasone 17-valerate. In this test, the drugs were administered intravenously to rats, while using a blank cotton pellet granuloma assay. Male Sprague-Dawley rats, each weighing about 185 grams (166-196 grams), were used. Two cotton pellets, each weighing 30 mg and containing no test compounds, were sterilized and implanted sub-cutaneously into the back of each test animal. This day was considered day 0 of implantation. Test compounds suspended in 0.8% polysorbate 80 were administered intravenously once daily for 3 consecutive days beginning with day 1. On day 5, the animals were sacrificed and the two pellets, with their respective granulomas, were removed, dried overnight in an oven at 50° C. and weighed (dry granuloma weight). The thymi and final body weights were also recorded.
In the foregoing tests, there was determined the deactivation of the representative species of the present soft steroids administered intravenously to rats. […] The test compounds were administered intravenously to rats to check the test compounds also for systemic anti-inflammatory activity as compared to betamethasone 17-valerate. The test compounds were found lower in the inhibition of granulation tissue formation and also in the thymus involution activity than betamethasone 17-valerate. From the results of the tests, it is presumed that the compounds which will not be readily subjected to metabolism (deactivation) have a systemic anti-inflammatory activity, as is the case with betamethasone 17-valerate.

[4] = system: granulation tissue formation caused by implantation of cotton pellets; assay: Granuloma formation test (local cotton pellet granuloma assay); type: in vivo, rat
Method: The test compound was dissolved in acetone and aliquots of varying concentrations were injected into cotton pellets. The pellets were dried and then one pellet was implanted beneath the skin of each test rat. Six days later, the animals were sacrificed and the granulation tissue (granuloma) which formed in and around the implanted pellet was removed, dried and weighed. In addition, the thymi and adrenals were removed and weighed.

[5] = system: blanching in humans; assay: McKenzie-type human blanching studies; type: in vivo; conditions: forearm, 6 hours occlusion
Method: McKenzie-type human blanching studies were undertaken to study the blanching effects of a representative test compound of the invention, chloromethyl 17α-ethoxycarbonyloxy-11β-hydroxyandrost-4-en-3-one-17β-carboxylate.
The test compound was dissolved in ethanol/isopropyl myristate (90/10 or 70/30) at 0.03, 0.01, 0.003, 0.001 and 0.0003 M concentrations. 50 Microliter aliquots of each solution were applied to separate gauze portions of a bandage of the type commonly used for allergy testing and the bandage was applied to the forearm. After 6 hours of occlusion, the bandage was removed.

[6] = system: thymus weight in rats; assay: Thymus involution test (topically administered steroids, thymus weight in rats)
Method: The test animals were female Sprague/Dawley rats weighing approximately 40-45 grams each. One side of each ear of each rat was treated with a total of 25 microliters of a solution (ethanol/isopropyl myristate or acetone/isopropyl myristate, 90/10) containing the amount of test compound indicated below. Animals which were treated identically, save for omission of the test compound, served as controls. After 24 hours, all rats were sacrificed and weighed, and their thymi were removed and weighed.
The lower the weight of the thymi, the greater the systemic activity.

[7] = Table X, betamethasone 17-valerate = 1
[8] = 0.75 μmol topical on ear, after 24 hours

## CCCCC(=O)O[C@]1(C(=O)CO)[C@@H](C)C[C@H]2[C@@H]3CCC4=CC(=O)C=C[C@]4(C)[C@@]3(F)[C@@H](O)C[C@@]21C [Betamethasone 17-valerate, reference compound]
[1]; 0.1 mg/kg/day s.c.
  Body weight gain: 15.5 ± 0.9 g
  Thymus: 362 ± 16 mg
  Thymus Inhibition: 23.1%
[1]; 0.3 mg/kg/day s.c.
  Body weight gain: 12.4 ± 0.9 g
  Thymus: 276 ± 11 mg
  Thymus Inhibition: 41.4%
[1]; 1 mg/kg/day s.c.
  Body weight gain: 13.0 ± 1.1 g
  Thymus: 200 ± 14 mg
  Thymus Inhibition: 57.5%
[1]; 3 mg/kg/day s.c.
  Body weight gain: 9.9 ± 1.3 g
  Thymus: 119 ± 7 mg
  Thymus Inhibition: 74.7%
[1]; [7]
  Relative Potency (TED40): 1
  Relative Potency (TED50): 1
[1]; Table X, dose required to achieve 40% inhibition of thymi weight, subcutaneous
  TED40: 0.30 mg
[1]; Table X, dose required to achieve 50% inhibition of thymi weight, subcutaneous
  TED50: 0.58 mg
[1]; Table XII, hydrocortisone 17-butyrate = 1
  Relative Potency (TED40): 4
[1]; Table XII, thymus inhibition effect, subcutaneously
  TED40: 0.3 mg/kg
[2]; 6 hr
  Ear Weight, % Increase: 10.9 ± 6.3 %
  Ear Weight, % Inhibition: 82.2%
  Ear Weight, Inflamed Ear: 55.4 ± 1.2 mg
  Ear Weight, Untreated Ear: 50.4 ± 2.0 mg
[2]; 48 hours
  Relative organ weight Adrenals: 18.9 ± 1.9 mg/100 g body wt.
  Relative organ weight Thymus: 267 ± 19 mg/100 g body wt.
[3]; 0.1 mg/kg/day i.v.
  Body wt. gain: 14.4 ± 1.6 g
  Dry granuloma wt.: 49.3 ± 3.9 mg
  Dry granuloma wt. Inhibition: 21.4%
  Thymus wt.: 305 ± 14 mg
  Thymus wt. Decrease: 27.7%
[3]; 0.3 mg/kg/day i.v.
  Body wt. gain: 12.2 ± 1.1 g
  Dry granuloma wt.: 44.4 ± 2.8 mg
  Dry granuloma wt. Inhibition: 29.2%
  Thymus wt.: 288 ± 27 mg
  Thymus wt. Decrease: 31.8%
[3]; 1 mg/kg/day i.v.
  Body wt. gain: 12.9 ± 1.1 g
  Dry granuloma wt.: 46.1 ± 4.3 mg
  Dry granuloma wt. Inhibition: 26.5%
  Thymus wt.: 233 ± 15 mg
  Thymus wt. Decrease: 44.8%
[3]; 3 mg/kg/day i.v.
  Body wt. gain: 13.0 ± 2.5 g
  Dry granuloma wt.: 47.3 ± 2.7 mg
  Dry granuloma wt. Inhibition: 24.6%
  Thymus wt.: 167 ± 22 mg
  Thymus wt. Decrease: 60.4%
[4]; Table III, 1 mg/pellet
  Body wt. gain: 16.6 ± 1.9 g
  Granulation tissue Dry wt.: 35.4 ± 7.3 mg/100 g body wt.
  Granulation tissue Inhibition: 19.0%
  Relative organ weight Adrenals: 15.5 ± 1.3 mg/100 g body wt.
  Relative organ weight Adrenals (Decrease %): (34.6) %
  Relative organ weight Thymus: 47 ± 2 mg/100 g body wt.
  Relative organ weight Thymus (Decrease %): (85.6) %
[4]; Table III, 3 mg/pellet
  Body wt. gain: 14.9 ± 1.7 g
  Granulation tissue Dry wt.: 31.6 ± 2.1 mg/100 g body wt.
  Granulation tissue Inhibition: 27.7%
  Relative organ weight Adrenals: 13.6 ± 0.9 mg/100 g body wt.
  Relative organ weight Adrenals (Decrease %): (42.6) %
  Relative organ weight Thymus: 38 ± 3 mg/100 g body wt.
  Relative organ weight Thymus (Decrease %): (88.3) %
[4]; Table III, 10 mg/pellet
  Body wt. gain: 17.0 ± 2.1 g
  Granulation tissue Dry wt.: 40.7 ± 2.6 mg/100 g body wt.
  Granulation tissue Inhibition: 6.9%
  Relative organ weight Adrenals: 12.6 ± 0.9 mg/100 g body wt.
  Relative organ weight Adrenals (Decrease %): (46.8) %
  Relative organ weight Thymus: 43 ± 4 mg/100 g body wt.
  Relative organ weight Thymus (Decrease %): (86.8) %
[4]; Table IV, 100 μg/pellet
  Body wt. gain: 24.9 ± 1.9 g
  Granulation tissue Dry wt.: 41.1 ± 2.7 mg
  Granulation tissue Dry wt. Inhibition: 49.4%
  Granulation tissue Wet wt.: 400 ± 19 mg
  Granulation tissue Wet wt. Inhibition: 29.3%
  Thymus wt.: 364 ± 24 mg
  Thymus wt. (Decrease %): (18.2) %
[4]; Table IV, 300 μg/pellet
  Body wt. gain: 22.3 ± 1.2 g
  Granulation tissue Dry wt.: 33.3 ± 3.6 mg
  Granulation tissue Dry wt. Inhibition: 59.0%
  Granulation tissue Wet wt.: 347 ± 15 mg
  Granulation tissue Wet wt. Inhibition: 38.7%
  Thymus wt.: 264 ± 29 mg
  Thymus wt. (Decrease %): (40.7) %
[4]; Table IV, 1000 μg/pellet
  Body wt. gain: 5.3 ± 1.0 g
  Granulation tissue Dry wt.: 38.1 ± 4.8 mg
  Granulation tissue Dry wt. Inhibition: 53.1%
  Granulation tissue Wet wt.: 363 ± 28 mg
  Granulation tissue Wet wt. Inhibition: 35.9%
  Thymus wt.: 77 ± 5 mg
  Thymus wt. (Decrease %): (82.7) %
[4]; Table IV, 3000 μg/pellet
  Body wt. gain: 6.6 ± 1.4 g
  Granulation tissue Dry wt.: 43.0 ± 4.1 mg
  Granulation tissue Dry wt. Inhibition: 47.0%
  Granulation tissue Wet wt.: 374 ± 15 mg
  Granulation tissue Wet wt. Inhibition: 33.9%
  Thymus wt.: 63 ± 3 mg
  Thymus wt. (Decrease %): (85.8) %
[4]; Table V-a, 10 μg/pellet
  Body wt. gain: 31.8 ± 1.6 g
  Granulation tissue Dry wt.: 38.5 ± 6.2 mg
  Granulation tissue Dry wt. Inhibition: 51.9%
  Granulation tissue Wet wt.: 375 ± 19 mg
  Granulation tissue Wet wt. Inhibition: 28.6%
  Thymus wt.: 479 ± 25 mg
  Thymus wt. (Decrease %): (3.2) %
[4]; Table V-a, 30 μg/pellet
  Body wt. gain: 30.8 ± 3.0 g
  Granulation tissue Dry wt.: 46.2 ± 7.4 mg
  Granulation tissue Dry wt. Inhibition: 42.3%
  Granulation tissue Wet wt.: 412 ± 42 mg
  Granulation tissue Wet wt. Inhibition: 21.5%
  Thymus wt.: 484 ± 23 mg
  Thymus wt. (Decrease %): (2.2) %
[4]; Table V-a, 100 μg/pellet
  Body wt. gain: 25.7 ± 1.2 g
  Granulation tissue Dry wt.: 41.0 ± 4.2 mg
  Granulation tissue Dry wt. Inhibition: 48.8%
  Granulation tissue Wet wt.: 419 ± 20 mg
  Granulation tissue Wet wt. Inhibition: 20.2%
  Thymus wt.: 378 ± 30 mg
  Thymus wt. (Decrease %): (23.6) %
[4]; Table XII, anti-inflammatory effect in cotton pellet granuloma
  ED50: 100 μg/pellet

## C[C@]12CCC(=O)C=C1CC[C@@H]1[C@@H]2[C@@H](O)C[C@@]2(C)[C@H]1CC[C@]2(O)C(=O)CO [Hydrocortisone]
[5]; 0.03 to 0.0003 M, 50 microliter, read 1 to 5 hours after removal
  blanching: blanching was not observed at concentrations of hydrocortisone below 0.03 M
[5]; direct comparison
  concentration causing approximately the same degree of blanching: ~0.03 M
[6]; 0.75 μmol topical
  decrease in thymus weight compared to the control (in words): causes a significant decrease in thymus weight compared to the control
[6]; [8]
  Total Weight per Rat, % Gain ± SD: 24 ± 7%
  Total Weight per Rat, Final: 61.15 g
  mg Thymus ± SD / 100 g Rat: 274 ± 45 mg/100 g
